The numbers were not newly measured in patent publication US20070218128A1, “Manufacturing of Quick Release Pharmaceutical Compositions of Water Insoluble Drugs and Pharmaceutical Compositions Obtained By the Process of the Invention” (priority 2004, published 2007), which cites them from elsewhere.

Read-outs that look alike come from different tables or passages of the source.

For data set [1] the following is noted: approximate values; for pKa1 / pKa2 / pKa3: Table 1 amino acids; for pKa: Table 1 alkaline substances, refer to the pKa of the acid.
The conditions of data set [2]: for solubility in water and in 0.1 N HCl: water and 0.1 N HCl.

On to `NCCCC[C@H](N)C(=O)O` [Lysine], for which, in data set [1], the pKa1 result was “pKa1: 2.2” and the pKa2 result was “pKa2: 8.9”.

As to `NN` [Hydrazine], in data set [1], the pKa is 8.

Consider `COc1ccc2c3c1O[C@H]1[C@@H](O)C=C[C@H]4[C@@H](C2)N(C)CC[C@@]341` [Codeine, reference compound], for which the “pH in saturated solution” value (saturated solution) is on record as “solution ≈ 9.8)”.

Turning to `N[C@@H](Cc1c[nH]cn1)C(=O)O` [Histidine], in data set [1], the pKa1 result is “pKa1: 1.8”, the pKa2 entry is “pKa2: 6.0” and the pKa3 result is “pKa3: 9.0”. Also, the pH entry (10 g/L H2O) is given as “pH ≈ 7.7”.

On to `O=C([O-])/C=C/C(=O)[O-].[Na+].[Na+]` [Sodium fumerate], for which, in data set [1], the pKa is 4.4.

On to `CN1C(C(=O)Nc2ccccn2)=C(O)c2sc(Cl)cc2S1(=O)=O` [lornoxicam], for which the “solubility in 0.1 N HCl” value in data set [2] (0.1 N HCl) is listed as “less than 0.1 % w/v”. For the same compound, the “solubility at a pH of 0.1 N HCl” value in data set [2] (0.1 N HCl, room temperature) is on record as “less than 1 mg/100 ml”.

`N=C(N)NCCC[C@H](N)C(=O)O` [Arginine]: in data set [1], the pKa1 entry was “pKa1: 2.2”, the pKa2 entry is “pKa2: 9.1” and the pKa3 entry was “pKa3: 13.2”. Moreover, the pH entry (100 g/L H2O) is reported as “pH ≈ 11.4”.

In the case of `CC(=O)Oc1ccccc1C(=O)O` [acetylsalicylic acid], the “solubility in water and in 0.1 N HCl” value in data set [2] (room temperature) is “practically insoluble”.

As to `O=C([O-])/C=C\C(=O)[O-].[Na+].[Na+]` [Sodium maleate], the pKa in data set [1] is listed as 6.2.

As to `COc1ccc2c(c1)c(CC(=O)O)c(C)n2C(=O)c1ccc(Cl)cc1` [indometacin], the “solubility in water and in 0.1 N HCl” value in data set [2] (room temperature) was “practically insoluble”.

As to `O=C([O-])[O-].[Na+].[Na+]` [Di-sodium carbonate], the pKa in data set [1] was 10.3.
